In patent publication US8377972B2, “Use of quaternary pyridinium compounds for vasoprotection and/or hepatoprotection” (Trigendo Sp. zo.o., priority 2007, dated 2013):
“Also recorded” adds a separate entry of the source. Like-named read-outs stand apart in the source and are kept apart here.

Columns and labels:
[1] = Binding of pyridinium cations to sepharose-immobilized heparin (spectrophotometric); details: immobilized heparin 25 mg/mL, tested compounds 20÷100 μM in water, 5 minutes, room temperature
From the text: The presence of the heparin in the pyridinium salt solution changes the absorption spectrum of the salt through the non-specific electrostatic interactions of pyridinium cations with negatively charged heparin moieties. The use of water-insoluble sepharose-immobilized heparin which binds some fraction of pyridinium cations causes the decrease of the concentration of the salt in the solution.
At the high excess of the immobilized heparin in relation to the pyridinium salt concentration the degree of binding depends only on the heparin concentration. It allows, by using the experimental methodology described below, to estimate the degree of binding of different pyridinium compounds to heparin, provided that analogical concentrations of pyridinium salts and constant concentration of sepharose-immobilized heparin are used.
To estimate a degree of binding of the pyridinium_compounds with heparin spectrophotometric method based on the absorption measurements of aqueous solutions of tested compounds at 20÷100 μM before and after a contact with heparin was used.
The suspensions of immobilized heparin with the tested compounds were then placed into Eppendorf microtubes and centrifuged at 13 000 rpm for 4 minutes using FORCE 1418 microcentrifuge from Labnet Int. (Edison, N.J., USA). The UV-Vis absorption spectra of the resulting clear supernatants was measured with Perkin Elmer Lambda 40 spectrophotometer. All measurements were performed at room temperature. The degree of binding was estimated based on comparison of integrated area under the absorption curve for the solutions incubated and non-contacted with heparin.

[2] = tested on: platelet-rich thrombus; details: Table 2; known anti-thrombotic activity, documented in WO 2005/067927; cited from earlier work
[3] = tested on: platelet-rich thrombus; assay: Thrombolytic response in vivo in rats with extracorporeal circulation (thrombus on collagen strip); design: species or system Wistar rats; details: for Thrombolytic response: Table 3, trigonelline and its thermal decomposition products; for thrombolytic response (in words) / thrombolytic response, maxima: 30 mg/kg intravenous; for thrombolytic response (in words): Wistar rats
Description: Thrombolytic activity was assayed by the method developed originally by Gryglewski et al., (Gryglewski R J, Korbut R, Ocetkiewicz A, Stachura J. In vivo method for quantitation for anti-platelet potency of drugs. Naunyn Schmiedebergs Arch Pharmacol 1978; 302:25-30; Gryglewski R J 1978, Gryglewski et al., 2001). The scheme of the method is shown on FIG. 1.
Wistar rats (body weight of 300-350 g) were anaesthetised (thiopental 95 mg/kg i.p) and heparinised (800 U/kg i.v.). Caniules were placed in arteries and connected from the left carotid artery vein with a pressure sensor and from the right carotid artery through heated (37° C.) line to peristaltic pomp. The blood from carotid artery was pumped to the extracorporeal circulation were it superfused (1.5 ml/min) a 3 cm collagen strip excised from Achilles tendon hung on a spring-balanced auxotonic lever of a Harvard 386 isotonic transducer and the weight of the collagen strip was continuously registered. After superfusion the blood was returned to the circulation of an animal. During superfusion a thrombus made of platelets aggregates stuck in the fibrin network (microscopically visualized by the Weigert method) was formed on the surface of the collagen strip. A pressure and the thrombus weight were continuously recorded.
Then the trigonelline thermolysate, 1-methylpyridine or 1,4-dimethylpyridine were injected intravenously into the femoral vein (30 mg·kg^−1).

[4] = tested on: Balb/c mice; assay: Hepatoprotective effect in mice model of acute liver injury (Concanavalin A-induced hepatitis); type: in vivo; details: 100 mg/kg per os for 7 days, ConA 20 mg/kg i.v., 8 hours later
Description: Balb/c mice at the age of 2 months were treated for 7 days with 1,4-dimethylpyridinium chloride (100 mg/kg, per os) or were left untreated and then mice were injected with Concanavalin A (ConA) inducing T cell-mediated hepatitis. ConA was injected intravenously at a dose of 20 mg/kg and 8 hours later liver injury was assessed on the basis of transaminase (AST) level in plasma.

[5] = tested on: Zucker fatty rats (fa/fa); assay: Antidiabetic effects in the rat model of metabolic syndrome (glucose injection); type: in vivo; details: 7 days treatment (thermolysate 100 mg/kg, metformin 500 mg/kg), glucose 2 g/kg i.p., 0-90 minutes
Description: After 7 days glucose was injected at 2 g/kg (i.p.) and postprandial hyperglycemia was analyzed in the following periods: 0, 15, 30, 60 and 90 minutes after the injection of glucose.

Row | Degree of binding [1] | Structure (SMILES) | Thrombolytic response [2] | thrombolytic response (in words) [3] | also measured
1 | >5% | Cn1cc(C(N)=O)ccc1=O [2-PYR, 1-methyl-2-pyridone-5-carboxamide] | no |  | 
2 | >25% | CC(=O)c1ccc[n+](C)c1 [MAP^+, 1-methyl-3-acetyl-pyridine] | yes |  | 
3 | >35% | C[n+]1cccc(C(=O)NCO)c1 [MNAF^+, 1-methyl-N′-(hydroxy-methyl) nicotinamide] | yes |  | 
4 | ≈0% | NC(=O)c1cccnc1 [NA, nicotinamide] | no | lack of significant thrombolytic response | thrombolytic response, maxima [3]: 9±0.6%
5 | >40% | O=C(O)c1cccnc1 [NC, nicotinic acid] | no | lack of significant thrombolytic response | thrombolytic response, maxima [3]: 5±0.9%
6 | >10% | NC(=O)c1ccc[n+]([O-])c1 [N—OX, nicotinamide N-oxide] |  |  | 
7 | ≈0% | C[n+]1cccc(C(=O)[O-])c1 [Tryg, trigonelline] |  | lack of significant thrombolytic response; also recorded: did not induce significant thrombolytic response | Thrombolytic response [3]: no

Second part, the molecule before the results:

Row | Structure (SMILES) | Degree of binding [1] | Thrombolytic response [2] | thrombolytic response (in words) [3] | also measured
8 | Cc1cc[n+](C)cc1C(=O)[O-] [4MeTryg, 4-methyltrigonelline] | >5% |  |  | 
9 | Cc1cccc[n+]1C [12-DMP^+, 1,2-dimethylpyridine] | >15% |  |  | 
10 | Cc1cc[n+](C)cc1 [14-DMP^+, 1,4-dimethylpyridine] | >20% |  |  | Thrombolytic response [3]: yes; transaminase (AST) level in plasma after ConA injection [4]: prevented a rise in AST levels
11 | C[n+]1cccc(C(N)=O)c1 [MNA^+, 1-methyl-nicotinamide] | >45% | yes |  | 
12 | C[n+]1ccccc1 [MP^+, 1-methylpyridine] | >25% |  | moderate thrombolytic response | Thrombolytic response [3]: yes
13 | CN(C)C(=N)N=C(N)N [metformin] |  |  |  | postprandial hyperglycemia induced by glucose injection [5]: decreased postprandial hyperglycemia
